Reference: patent publication US4680286A, “Use of selenium-containing compounds for negating the toxic effects of gold compounds used in the treatment of rheumatoid arthritis, and a novel selenium-containing gold compound and use thereof as an anti-rheumatoid arthritis medicine” (priority 1985, dated 1987)

What was measured:
[1] = system: cadmium-induced testicular demage; conditions: Kar, Das and Mukerji 1960; cited from earlier work
[2] = system: toxicity of mercury, silver and thallium; conditions: observed by other researchers; cited from earlier work
[3] = system: toxic effects of Na3 Au(S2 O3)2.2H2 O; experiment: Gold toxicity in mice given sodium selenite prior to (drinking water) or after (injection) the gold compound; assay type: in vivo; conditions: gold at or slightly exceeding reported LD50, vs gold-only control
Description: (§1) A number of experiments in which sodium selenite was given to mice both prior to and after treatment with a gold compound were conducted. In the first series of experiments in which the selenium compound was administered prior to the gold injection, mice were given sodium selenite in their drinking water over an extended period of time. Periodically, the mice were sacrificed and the kidney and liver were analyzed to monitor the accumulation of selenium. When observed selenium levels in the liver were on the order of 5 ppm, the remaining animals were given the gold compound at levels slightly exceeding the reported LD50 value.
In the second series of experiments, in which sodium selenite were injected after the gold injection, the mice were given dosages of gold compounds at the reported LD50 value and were then injected with sodium selenite. In both series of experiments, a control group which received the gold compound but no selenium compound was maintained. […] In all cases, the gold was administered as Na3 Au(S2 O3)2.2H2 O.

[4] = Accumulation of selenium in tissue of mice; assay type: in vivo; conditions: sodium selenite in drinking water over an extended period, level at which gold was given
Description: as §1
In these experiments, large groups of mice were fed other type selenium compounds, which were sodium selenate, selenium yeast and selenocystine. Periodically, one would be sacrificed and the selenium concentration of the kidney and liver would be determined. When above 5 to about 7 ppm selenium concentrations were obtained, the remaining mice were given injections of Na3 Au(S2 O3)2.2H2 O at the reported LD50 value. A control group that received no dietary selenium was maintained. This control group was given the gold salt at the same time as the selenium accumulated mice. The toxic effects of the gold was then compared in the two groups of mice.

Structure (SMILES) | protection against cadmium-induced testicular damage [1] | protection against the toxicity of mercury, silver and thallium [2] | toxic effects compared with mice which received only the gold treatment [3] | observed selenium levels in the liver [4] [ppm]
[Se] [selenium] | prevents cadmium-induced testicular demage | Protection effects |  | 
O=[Se](O)O [sodium selenite] |  |  | markedly reduced toxic effects | ~5
